In patent US20020164266A1, “Microbicidal mixtures” (priority 2001, published 2002):

How the values were obtained:
Format in all cases: cell-based
[1] = system: Pseudomonas fluorescens; assay: Synergism (BNPD/MIT), MIC values for Pseudomonas fluorescens; conditions: read-out: MIC values for Pseudomonas fluorescens
From the text: (§1) The mixtures according to the invention have synergistic activity. The observed synergism can be determined by the following mathematical equation (see F. C. Kull, P. C. Elisman, H. D. Sylwestrowicz and P. K. Mayer, Appl. Microbiol. 9, 538 (1961): [formula]
(§2) Qa=the amount of component A in the active compound mixture which achieves the desired effect, i.e. no microbial growth.
(§3) QA=the amount of component A which, when used on its own, suppresses the growth of the microorganisms.
(§4) Qb=the amount of component B in the active compound mixture which suppresses the growth of the micoorganisms.
(§5) QB=the amount of component B which, when used on its own, suppresses the growth of the microorganisms.
(§6) A synergistic index of SI<1 indicates a synergistic effect for the mixture in question. […] All parts and percentages are by weight unless otherwise indicated.
Test pathogen: Pseudomonas fluorescens
(§7) In brackets=mixing ratios of the pure active compounds

[2] = system: Pseudomonas aeruginosa; assay: Synergism (BNPD/MIT), MIC values for Pseudomonas aeruginosa; conditions: read-out: MIC values for Pseudomonas aeruginosa
From the text: as §1, §2, §3, §4, §5, §6
Test pathogen: Pseudomonas aeruginosa
as §7

[3] = system: Bacillus subtilis; assay: Synergism (BNPD/MIT), MIC values for Bacillus subtilis; conditions: read-out: MIC values for Bacillus subtilis
From the text: as §1, §2, §3, §4, §5, §6
Test pathogen: Bacillus subtilis
as §7

Row | Structure (SMILES) | MIC [1] | MIC [2] | MIC [3]
1 | O=[N+]([O-])C(Br)(CO)CO [BNPD, 2-bromo-2-nitropropanediol] | 10 µg/mL | 10 µg/mL | 10 µg/mL
2 | Cn1sccc1=O [MIT, 2-methyl-2H-isothiazol-3-one] | 10 µg/mL | 10 µg/mL | 25 µg/mL
